# Test results taken from patent EP0333831B1, “USE OF METALLOPORPHYRINS TO REVERSE THE TOXIC EFFECT OF TUMOR THERAPY” (priority 1987, dated 1989).
# Legend:
# Type in all cases: in vivo, Sprague-Dawley rats
# microsomal heme = assay: hepatic microsomal heme content in rats treated with doxorubicin, with or without SnPP
# Procedure: (§1) The efficacy of the products of the invention for their newly discovered utility was established by experiments with three groups of male Sprague-Dawley rats (males, 150-200 grams, 16 per group). The rats were maintained on ad lib water and powdered rat chow (Purina) during the experiments. Group A was untreated, Group B was treated subcutaneously with doxorubicin alone on day 0, and Group C was treated with SnPP one day prior to doxorubicin which was administered on day 0.
# (§2) The animals utilized in the tests were acclimated in metabolic cages maintained in a controlled environment with a 12h/12h light/dark cycle.
# (§3) The compositions for parenteral administration were freshly prepared for each injection by addition of 0.4 N NaOH (20% v/v) to prepare a solution at pH 12, adjusted to pH 7.5 with 1 NHCl and made to final volume with 0.9% saline. The dosage level per injection was 50 µmol/kg b.w. Control animals were administered an equivalent amount of saline.
# (§4) Animals were deprived of food but allowed free access to water for 16 hours prior to sacrifice. […] Cytochrome P-450 content was determined by the methods of Omura and Sato [J. Biol. Chem., 239: 2379 (1966) and 239: 2370 (1966)], and protein concentration by the method of Lowry et al [J. Biol. Chem., 193 265 (1951)] using crystalline bovine serum albumin as standard. […]
# cytochrome P-450 = assay: hepatic microsomal cytochrome P-450 content in rats treated with doxorubicin, with or without SnPP
# Procedure: as §1, §2, §3, §4
# heme metabolism = test system: heme metabolism
# Procedure: as §1
# It will be seen that the increase in heme oxygenase activity and decrease in ALA synthetase activity and microsomal content of cytochrome P-450 were at a maximum on day 2 and returned to normal by day 10.
# as §2, §3
# Animals were deprived of food but allowed free access to water for 16 hours prior to sacrifice. Livers were perfused in situ with ice-cold saline and homogenized in tris-HCL (0.01 M, pH 7.4) buffer containing sucrose (0.25 M). Homogenates (25% w/v) were centrifuged at 9000 g for 20 min, and the resulting mitochondrial pellet was used for the assay of ALA-synthetase activity. The 9000 xg supernatant was centrifuged at 105,000 xg for 60 min in a Beckman L5-50 ultracentrifuge. The microsomal pellet was resuspended in a minimum volume of potassium phosphate buffer (0.1 M, pH 7.4) and the cytosol was used as a source of biliverdin reductase. Cytochrome P-450 content was determined by the methods of Omura and Sato [J. Biol. Chem., 239: 2379 (1966) and 239: 2370 (1966)], and protein concentration by the method of Lowry et al [J. Biol. Chem., 193 265 (1951)] using crystalline bovine serum albumin as standard. […]
# hepatic heme oxygenase = hepatic heme oxygenase activity in rats treated with doxorubicin, with or without SnPP; conditions: SnPP (50 µmol/kg b.w.) one day prior to doxorubicin 10 mg/kg b.w.; compared to the group treated with doxorubicin alone
# Procedure: as §1, §2, §3, §4
# ALA synthetase = assay: hepatic ALA synthetase activity in rats treated with doxorubicin, with or without SnPP; conditions: SnPP (50 µmol/kg b.w.) one day prior to doxorubicin 10 mg/kg b.w.; compared to the group treated with doxorubicin alone
# Procedure: as §1, §2, §3, §4
# [1] = doxorubicin 10 mg/kg b.w. subcutaneous, measured 2 days after administration, vs untreated, P < 0.05
# [2] = SnPP one day prior to doxorubicin 10 mg/kg b.w., compared to the untreated group
decrease in hepatic heme oxygenase activity (hepatic heme oxygenase) [%],increase in hepatic ALA-synthetase activity (ALA synthetase) [%],Compound,decrease in the microsomal content of heme (microsomal heme; [1]) [%],decrease in the microsomal content of cytochrome P-450 (cytochrome P-450; [1]) [%],"time of maximum increase in heme oxygenase activity and decrease in ALA synthetase activity and microsomal content of cytochrome P-450 (heme metabolism; rat, in vivo) [days]","time of return to normal of heme oxygenase activity, ALA synthetase activity and microsomal cytochrome P-450 (heme metabolism; rat, in vivo) [days]",levels of microsomal heme (microsomal heme; [2]),levels of hepatic cytochrome P-450 (cytochrome P-450; [2]),prevention of doxorubicin-induced variations in heme metabolism (heme metabolism; metalloporphyrin administered one day prior to doxorubicin)
–,–,"COc1cccc2c1C(=O)c1c(O)c3c(c(O)c1C2=O)C[C@@](O)(C(=O)CO)C[C@@H]3O[C@H]1C[C@H](N)[C@H](O)[C@H](C)O1 [doxorubicin, reference compound]",45,18,2,≤ 10,–,–,–
92,35,tin protoporphyrin-IX [SnPP],–,–,–,–,substantially identical to those in the untreated group,substantially identical to those in the untreated group,prevented the occurrence of these variations in heme metabolism
